# Patent US20220079889A1, “USE OF CANNABANOIDS IN THE TREATMENT OF PROLIFERATIVE DIABETIC RETINOPATHY” (VERDANT PHARMACEUTICALS, LLC, priority 2020, published 2022)
# What was measured:
# [1] = system: ICAM-1; assay: ELISA of RPE-choroid complex after laser injury: ICAM-1; assay type: in vivo, rat; settings: laser-treated animals, 3 days after laser injury; 0.3 mg/kg BW daily i.p.
# Method: To block CB, a specific CBD, Compound 11 described above, was used (R-tech Ueno, Ltd., Tokyo, Japan). After laser injury, the inhibitor (0.3 mg/kg BW) was administered to the animals by daily i.p. injections. As a control, some animals received the same regimen for the vehicle solution alone.
# The RPE-choroid complex was carefully isolated from eyes 3 days after photocoagulation and placed in 300 μl of lysis buffer supplemented with protease inhibitors and sonicated. The lysate was centrifuged at 15,000 rpm for 15 minutes at 4° C. and the levels of TNF-α, monocyte chemotactic protein (MCP)-1, and intercellular adhesion molecule (ICAM)-1 were determined with rat TNF-α (BI) bioscience), MCP-1 (BD bioscience) and ICAM-1 (R&D Systems, Minneapolis, Minn.) enzyme-linked immunosorbent assay (ELISA) kits according to the manufacturers' protocols. Total protein concentration was determined using a Bio-Rad Protein Assay Kit (Bio-Rad Laboratories Hercules, Calif.) and dilutions of bovine serum albumin (Bio-Rad Laboratories) as standards.
# [2] = molecular target: T1, monoamine oxidase (MAO)-A (Homo sapiens, UniProt P21397); settings: functionally related monoamine oxidase; read-out: IC50 against MAO-A; cited from earlier work
# T1 sequence (P21397 1-527): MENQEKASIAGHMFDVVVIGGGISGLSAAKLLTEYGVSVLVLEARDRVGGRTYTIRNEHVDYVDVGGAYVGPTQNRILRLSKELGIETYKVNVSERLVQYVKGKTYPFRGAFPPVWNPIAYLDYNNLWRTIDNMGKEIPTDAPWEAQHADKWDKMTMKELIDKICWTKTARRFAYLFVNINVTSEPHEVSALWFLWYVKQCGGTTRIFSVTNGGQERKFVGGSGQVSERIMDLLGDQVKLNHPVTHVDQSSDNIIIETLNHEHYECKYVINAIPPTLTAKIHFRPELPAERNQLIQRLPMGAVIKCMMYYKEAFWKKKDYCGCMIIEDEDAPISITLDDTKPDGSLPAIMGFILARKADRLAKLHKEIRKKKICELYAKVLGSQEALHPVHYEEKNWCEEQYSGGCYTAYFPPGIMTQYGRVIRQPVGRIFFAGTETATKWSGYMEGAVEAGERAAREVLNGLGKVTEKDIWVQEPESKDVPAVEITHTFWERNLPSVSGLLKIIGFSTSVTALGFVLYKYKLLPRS
# [3] = molecular target: T2, MAO-3 (Homo sapiens, UniProt P27338); settings: functionally related monoamine oxidase; read-out: IC50 against MAO-3; cited from earlier work
# T2 sequence (P27338 1-520): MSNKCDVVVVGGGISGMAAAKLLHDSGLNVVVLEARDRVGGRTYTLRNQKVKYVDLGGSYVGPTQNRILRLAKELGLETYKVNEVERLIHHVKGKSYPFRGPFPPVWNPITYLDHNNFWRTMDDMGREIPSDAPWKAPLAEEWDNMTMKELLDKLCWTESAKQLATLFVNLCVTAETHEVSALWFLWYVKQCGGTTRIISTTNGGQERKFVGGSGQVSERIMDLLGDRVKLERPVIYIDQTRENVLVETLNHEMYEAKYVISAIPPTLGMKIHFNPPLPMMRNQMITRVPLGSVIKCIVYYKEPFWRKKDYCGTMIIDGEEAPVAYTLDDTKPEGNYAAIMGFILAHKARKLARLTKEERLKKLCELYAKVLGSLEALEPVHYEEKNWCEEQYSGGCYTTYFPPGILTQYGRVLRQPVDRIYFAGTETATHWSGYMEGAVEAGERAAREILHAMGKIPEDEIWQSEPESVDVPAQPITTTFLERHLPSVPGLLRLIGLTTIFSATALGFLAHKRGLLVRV
# [4] = system: vascular leakage from the CNV lesions; assay: Laser injury CNV model, fluorescein angiography grading of leakage; assay type: in vivo, Brown-Norway rats; settings: rats
# Method: Lewis rats were euthanized by overdose anesthesia and perfused with PBS (500 ml/kg body weight (BW)). Eyes were immediately enucleated and the retinal pigment epithelium (RPE)-choroid complex was obtained from the rat eyes and homogenized in extraction reagent (TRIzol Reagent; Invitrogen, Carlsbad, Calif.). As a control, the retinal tissues were separately obtained and processed. Total RNA was prepared according to the manufacturer's protocol, and equal amounts ([…]) of total RNA were reverse transcribed with a First-Strand cDNA synthesis kit (GE Healthcare, Buckinghamshire, UK) at 37° C. for 1 hour in a 15 μl reaction volume. […] PCR products were analyzed by electrophoresis in a 1.5% agarose gel and stained with ethidium bromide ([…]). The expected sizes of the amplified cDNA fragments of CB and GAPDH were 341 bp and 387 bp, respectively Band densities were quantified using NIH Image 1.41 software (available by ftp from zippy.nimh.nih.gov/or from the web site, rsb info.nih.gov/nih-image: developed by Wayne Rasband, National Institutes of Health, Bethesda, Md.). […]
# Seven days after laser injury, vascular leakage from the CNV lesions was assessed using fluorescein angiography (FA), as described previously (Zambarakji et al. (2001) IOVS 42: 1553-60). […]
compound,measurement,setting,value
CC(=O)Nc1nc(CCc2ccc(NC(=N)NN)cc2)c(Cc2ccc(S(C)(=O)=O)cc2)s1 [Compound II],protein level of ICAM-1 in the RPE-choroid complex,[1],57 ± 2 ng/mg
same,IC50,[2],> 10 µM
same,IC50,[3],> 10 µM
same,effect on fluorescent angiographic leakage (in words),[4],significantly decreased
